The structures appear in SMILES notation. pEC50: −log10 of the molar value.

The source of these data is patent publication US20130165446A1 (priority 2010, published 2013).

Assay [1] in a line: Weight gain test (in vivo). The following applies: ob/ob mice; for Weight gain: Example 8 10 mg/kg, rosiglitazone 3 mg/kg, days 1-25. The protocol: (§1) A test compound (the compound of Example 8, n=8) was given orally to 5- to 6-week-old ob/ob mice (C57b1/6ob/ob female mice) at a dose of 10 mg/kg for 1-25 days, then a test compound (the compound of Example 8) was given at 20 mg/kg for 26-33 days. An oral load test of 2 g/kg of glucose was carried out while the mice were fasted, and the blood glucose concentration was measured at −30, 0, 30, 60, 90, 120, and 180 minutes. For comparison, 3 mg/kg of rosiglitazone (n=8) were given for 1-25 days, then 3 mg/kg of rosiglitazone were given for 26-33 days, and the blood glucose concentration was measured in the same manner. Table 7 indicates the results.
The body weight of mice was measured when 10 mg/kg of the same test compound (the compound of Example 8) were given for 1-25 days, and 3 mg/kg of rosiglitazone were given for 1-25 days. Table 8 indicates the results.

Assay [2] concerns ob/ob mice (C57b1/6ob/ob female mice). Put plainly: Glucose tolerance test (in vivo). Conditions: for Glucose concentration: fasted ob/ob mice, oral load 2 g/kg glucose, Example 8 oral 10 mg/kg days 1-25 then 20 mg/kg days 26-33, rosiglitazone 3 mg/kg, n=8. The protocol:
as §1

Assay [3] deals with T1, human nuclear receptor PPARβ (Homo sapiens, UniProt Q03181).
T1 sequence (Q03181 211-439 limits assumed): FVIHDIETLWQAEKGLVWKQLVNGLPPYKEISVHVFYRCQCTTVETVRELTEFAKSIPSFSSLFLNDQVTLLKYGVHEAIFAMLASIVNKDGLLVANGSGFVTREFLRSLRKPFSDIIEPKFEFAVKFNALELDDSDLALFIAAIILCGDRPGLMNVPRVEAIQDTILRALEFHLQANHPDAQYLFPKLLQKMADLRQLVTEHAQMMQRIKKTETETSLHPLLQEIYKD
Put plainly: PPAR agonist activity measurement test (cell-free FRET cofactor assay), PPARβ. Conditions: result in words. Format: biochemical. The protocol:
(§2) Agonist activity to the human nuclear receptors PPARα, β, and γ was measured using a biochemical fluorescent resonance energy transfer (FRET) assay system, which is a cell-free assay system, following a method described in the literature (for example, J. Biol. Chem., vol. 281 (8), pages 4920-4930 (2006)).
(§3) Specifically, after an N-terminal biotin-labeled peptide having cofactor peptide SRC1 (amino acid sequence 676-700), which includes the nuclear receptor bonding LXXLL motif region, and the fluorescent fusion proteins of the PPAR ligand binding domain were allowed to stand at room temperature for one hour, the energy transfer between the fluorescence donor and the fluorescence acceptor was measured to detect the test compound dose reaction to the cofactor.
(§4) A Perkin-Elmer Envision Multilabel Plate Reader was used for measurement. During measurement, 320 nm was used as the excitation wavelength, and 615 nm and 665 nm were used as the emission wavelengths. The test compound was dissolved in DMSO (dimethylsulfoxide) to a final solution concentration of 1%.

Assay [4] addresses T2, human nuclear receptor PPARα (Homo sapiens, UniProt Q07869).
T2 sequence (Q07869 239-466 limits assumed): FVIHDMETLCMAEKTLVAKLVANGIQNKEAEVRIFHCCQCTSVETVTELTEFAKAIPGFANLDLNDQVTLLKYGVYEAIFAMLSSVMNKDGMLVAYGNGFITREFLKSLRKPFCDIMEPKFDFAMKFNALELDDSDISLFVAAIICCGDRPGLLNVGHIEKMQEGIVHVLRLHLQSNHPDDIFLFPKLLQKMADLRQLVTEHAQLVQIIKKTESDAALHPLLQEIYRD
Put plainly: PPAR agonist activity measurement test (cell-free FRET cofactor assay), PPARα. The assay is classed as biochemical. Conditions: result in words. Here is the method:
as §2, §3, §4

Assay [5] concerns the target T3, human recombinant (CHO cell) AT1 receptor (Homo sapiens, UniProt P30556).
T3 construct: expressed in transfected cells; host or cells: CHO cells
T3 sequence (P30556 1-359): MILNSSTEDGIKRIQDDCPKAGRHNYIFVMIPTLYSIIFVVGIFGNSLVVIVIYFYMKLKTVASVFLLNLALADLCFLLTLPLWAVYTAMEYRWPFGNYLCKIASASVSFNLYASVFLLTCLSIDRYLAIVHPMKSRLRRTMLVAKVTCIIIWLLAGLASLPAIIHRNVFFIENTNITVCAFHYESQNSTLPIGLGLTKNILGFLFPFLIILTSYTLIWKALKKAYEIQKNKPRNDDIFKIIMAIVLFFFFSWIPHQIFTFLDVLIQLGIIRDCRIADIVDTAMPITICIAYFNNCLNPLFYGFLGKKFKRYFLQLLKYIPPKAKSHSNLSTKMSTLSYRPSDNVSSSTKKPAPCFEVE
The assay is described as follows: Angiotensin II inhibition test (radioligand binding to AT1 receptor). Conditions: test compound concentration 10^−9 M; radioactive iodine-labeled angiotensin II, 37° C., sixty minutes; read-out: Inhibition rate (%). The protocol: A test of inhibition of angiotensin II to human recombinant (CHO cell) AT1 receptor following a method described in the literature (for example, Regul. Pept., vol. 44 (2), page 131 (1993)) was used to measure inhibitory activity to a test compound.
The ligand used was 10^−9 M of a test compound dissolved in 1% DMSO (dimethylsulfoxide). This was reacted with radioactive iodine-labeled angiotensin II at 37° C. for sixty minutes. Taking the inhibition rate of angiotensin II at 10 μM as nonspecific binding, the specific binding rate was calculated by subtracting this nonspecific portion. Table 6 indicates the results (the inhibition rate at test compound concentration: 10^−9 M)

Assay [6] addresses T4, human nuclear receptor PPARγ (Homo sapiens, UniProt P37231).
T4 sequence (P37231 238-503 limits assumed): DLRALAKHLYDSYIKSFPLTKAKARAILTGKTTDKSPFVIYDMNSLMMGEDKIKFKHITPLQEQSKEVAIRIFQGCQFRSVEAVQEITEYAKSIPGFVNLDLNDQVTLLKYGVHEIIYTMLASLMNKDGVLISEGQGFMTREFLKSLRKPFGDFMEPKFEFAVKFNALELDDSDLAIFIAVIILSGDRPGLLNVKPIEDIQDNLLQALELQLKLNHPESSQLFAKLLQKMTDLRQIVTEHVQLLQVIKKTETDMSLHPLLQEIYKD
The assay is described as follows: PPAR agonist activity measurement test (cell-free FRET cofactor assay), PPARγ. The assay is classed as biochemical. The protocol:
as §2, §3, §4

In the case of `CN(CCOc1ccc(CC2SC(=O)NC2=O)cc1)c1ccccn1` (stereo not shown) [Rosiglitazone, rosiglitazone, reference compound], the “Weight gain” value in assay [1] (day 0) turned out to be 0 g; in assay [1] (day 4) it was 1.2 ± 0.1 g; in assay [1] (day 11), 4.5 ± 0.3 g; in assay [1] (day 14), 5.8 ± 0.1 g; in assay [1] (day 18) it was 7.5 ± 0.2 g; in assay [1] (day 24), 8.9 ± 0.2 g. Also, the “Glucose concentration” value in assay [2] (0 min) was determined as 4.6 ± 0.3 mmol/L; in assay [2] (30 min), 12.5 ± 0.9 mmol/L; in assay [2] (60 min), 4.9 ± 0.3 mmol/L; in assay [2] (120 min) it was 4.6 ± 0.1 mmol/L; in assay [2] (180 min), 4.6 ± 0.1 mmol/L; in assay [2] (−30 min), 4.6 ± 0.3 mmol/L.

Consider `CCCc1nc(CSc2ccc(Oc3ccc4nc(COc5ccc(CC6SC(=O)NC6=O)cc5)n(C)c4c3)cc2)c(C(=O)OCC)n1Cc1ccc(-c2ccccc2-c2nnn[nH]2)cc1` (stereo not shown) [Example 8, 4-[4-{2-[4-(2,4-dioxothiazolidin-5-ylmethyl)phenoxymethyl]-1-methyl-1H-benzimidazol-6-yloxy}phenylthiomethyl]-2-propyl-1-[2′-(1H-tetrazol-5-yl)biphenyl-4-ylmethyl]-1H-imidazole-5-carboxylic acid ethyl ester], for which, in assay [3], the “activity against PPARβ” value is given as “did not exhibit activity”. For the same compound, the “Weight gain” value in assay [1] (day 0) worked out at 0 g; in assay [1] (day 4) it was 0.8 ± 0.0 g; in assay [1] (day 11), 3.3 ± 0.2 g; in assay [1] (day 14), 4.2 ± 0.3 g; in assay [1] (day 18), 5.9 ± 0.3 g; in assay [1] (day 24), 6.8 ± 0.2 g. Also, the “weight gain compared to the control” value in assay [1] (10 mg/kg days 1-25, result in words) was “nearly comparable weight gain to the control”. In addition, the “weight gain compared to rosiglitazone” value in assay [1] (10 mg/kg days 1-25 vs rosiglitazone 3 mg/kg, result in words) was “significantly inhibited weight gain compared to rosiglitazone”. Besides, the “activity against PPARα” value in assay [4] is reported as “did not exhibit activity”. For the same compound, the inhibition (as a rule, the percentage by which the read-out fell short of the control) at 0.001 µM in assay [5] is 73%. Also, the “Glucose concentration” value was 6.4 ± 0.6 mmol/L in assay [2] (0 min); 12.5 ± 0.9 mmol/L in assay [2] (30 min); 7.3 ± 0.9 mmol/L in assay [2] (60 min); 5.5 ± 0.6 mmol/L in assay [2] (120 min); 6.1 ± 0.6 mmol/L in assay [2] (180 min); 7.6 ± 0.9 mmol/L in assay [2] (−30 min). The “increase in blood glucose concentration compared to the control” value in assay [2] (ob/ob mice, oral glucose load 2 g/kg, result in words) was “significantly inhibited increase in blood glucose concentration compared to the control”. The “activity against PPARγ” value in assay [6] (FRET agonist assay, result in words) is “exhibited activity only against PPARy”. The pEC50 in assay [6] (FRET, cofactor peptide SRC1, twelve concentrations 50 μM to 0 nM, 1% DMSO, read-out: ED50 (the source's name)) was 6.94.

`CCCCc1nc(Cl)c(C[S+]([O-])c2ccc3nc(COc4ccc(CC5SC(=O)NC5=O)cc4)n(C)c3c2)n1Cc1ccc(-c2ccccc2-c2nnn[nH]2)cc1` (stereo not shown) [Example 23, 5-(4-{6-[2-butyl-4-chloro-1-[2′-(1H-tetrazol-5-yl)biphenyl-4-ylmethyl]-1H-imidazol-5-ylmethylsulfinyl]-1-methyl-1H-benzimidazol-2-ylmethoxy}benzyl)thiazolidine-2,4-dione]: the inhibition at 0.001 µM in assay [5] amounted to 22%.

Turning to `CCCc1nc(CSc2ccc3nc(COc4ccc(CN(CC(=O)O)C(=O)Oc5ccccc5)cc4)n(C)c3c2)c(C(=O)OCC)n1Cc1ccc(-c2ccccc2-c2nnn[nH]2)cc1` [Example 36, N-[4-{6-[5-ethoxycarbonyl-1-{2′-(1H-tetrazol-5-yl)biphenyl-4-ylmethyl}-2-propyl-1H-imidazol-4-ylmethylthio]-1-methyl-1H-benzimidazol-2-ylmethoxy}phenylmethyl]-N-phenyloxycarbonylaminoacetic acid], the inhibition at 0.001 µM in assay [5] turned out to be 83%.
